In PubChem BioAssay AID2060501 (Molecular Pharmacology Branch, DTP, NCI, 2025):
pIC50: −log10 of the molar value.

Tested on: 282377-053-R-J1-PDC complex spheroids, viability
Assay: Anticancer human tumor 282377-053-R-J1-PDC patient-derived colon adenocarcinoma cell line growth inhibition [GQUAD]
Conditions: for pIC50: curve of first compound; for viability, T/C: stronger effect = lower value
Summary of the method: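 Multi-cell-type spheroids of tumor cells with HUVEC and mesenchymal stem cells, treated with drug combinations. Concentrations descend in half-log steps from near clinical Cmax, or from 10 microM where Cmax is unknown; viability read-out.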

[1] = second compound 0.0316 µM, first compound 0.0316 µM
[2] = second compound 0.0316 µM, first compound 0.1 µM
[3] = second compound 0.0316 µM, first compound 0.316 µM
[4] = second compound 0.0316 µM, first compound 1 µM
[5] = second compound 0.0316 µM, first compound 3.16 µM
[6] = second compound 0.0316 µM, first compound 10 µM
[7] = second compound 0.1 µM, first compound 0.0316 µM
[8] = second compound 0.1 µM, first compound 0.1 µM
[9] = second compound 0.1 µM, first compound 0.316 µM
[10] = second compound 0.1 µM, first compound 1 µM
[11] = second compound 0.1 µM, first compound 3.16 µM
[12] = second compound 0.1 µM, first compound 10 µM
[13] = second compound 0.316 µM, first compound 0.0316 µM
[14] = second compound 0.316 µM, first compound 0.1 µM
[15] = second compound 0.316 µM, first compound 0.316 µM
[16] = second compound 0.316 µM, first compound 1 µM
[17] = second compound 0.316 µM, first compound 3.16 µM
[18] = second compound 0.316 µM, first compound 10 µM
[19] = second compound 1 µM, first compound 0.0316 µM
[20] = second compound 1 µM, first compound 0.1 µM
[21] = second compound 1 µM, first compound 0.316 µM
[22] = second compound 1 µM, first compound 1 µM
[23] = second compound 1 µM, first compound 3.16 µM
[24] = second compound 1 µM, first compound 10 µM
[25] = second compound 3.16 µM, first compound 0.0316 µM
[26] = second compound 3.16 µM, first compound 0.1 µM
[27] = second compound 3.16 µM, first compound 0.316 µM
[28] = second compound 3.16 µM, first compound 1 µM
[29] = second compound 3.16 µM, first compound 3.16 µM
[30] = second compound 3.16 µM, first compound 10 µM
[31] = second compound 10 µM, first compound 0.0316 µM
[32] = second compound 10 µM, first compound 0.1 µM
[33] = second compound 10 µM, first compound 0.316 µM
[34] = second compound 10 µM, first compound 1 µM
[35] = second compound 10 µM, first compound 3.16 µM
[36] = second compound 10 µM, first compound 10 µM
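Also: spheroids exposed to compounds for 7 days before readout.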
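For viability, T/C in this document: percent of vehicle DMSO control viability with 100% = untreated-like growth.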

COc1cccc2c1C(=O)c1c(O)c3c(c(O)c1C2=O)CC(O)(C(=O)CO)CC3OC1CC(N)C(O)C(C)O1 (stereo unspecified) + Cc1cnc(CNC(=O)c2c(=O)c3ccc(N4CCCN(C)CC4)nc3n3c2sc2ccccc23)cn1 gave a pIC50 (second compound 0.0316 µM) of 6.01, a pIC50 (second compound 0.1 µM) of 6.10 and a pIC50 (second compound 0.316 µM) of 6.26. The pIC50 (second compound 1 µM) was 6.48, the pIC50 (second compound 3.16 µM) was 6.53 and the pIC50 (second compound 10 µM) was over 7.50. The viability, T/C [1] was 140%, the viability, T/C [2] was 118% and the viability, T/C [3] was 83.6%. For the same compound, the viability, T/C [4] was 55.6%, the viability, T/C [5] was 11.3% and the viability, T/C [6] was 1.72%. It also gave a viability, T/C [7] of 99.8%, a viability, T/C [8] of 97.5% and a viability, T/C [9] of 82%. The viability, T/C [10] was 41.1%, the viability, T/C [11] was 13.1% and the viability, T/C [12] was 1.51%. It also gave a viability, T/C [13] of 91.6%, a viability, T/C [14] of 95.1% and a viability, T/C [15] of 55.5%. It also gave a viability, T/C [16] of 38.9%, a viability, T/C [17] of 11.9% and a viability, T/C [18] of 1%. For the same compound, the viability, T/C [19] was 68.2%, the viability, T/C [20] was 59.6% and the viability, T/C [21] was 44.3%. For the same compound, the viability, T/C [22] was 44.8%, the viability, T/C [23] was 8.25% and the viability, T/C [24] was 0.83%. It also gave a viability, T/C [25] of 56.4%, a viability, T/C [26] of 62% and a viability, T/C [27] of 41.3%. It also gave a viability, T/C [28] of 40.1%, a viability, T/C [29] of 8.56% and a viability, T/C [30] of 0.74%. It also gave a viability, T/C [31] of 54.4%, a viability, T/C [32] of 46.4% and a viability, T/C [33] of 47%. It also gave a viability, T/C [34] of 39.9%, a viability, T/C [35] of 2.37% and a viability, T/C [36] of 0.53%.

Compound Nc1ccn(C2OC(CO)C(O)C2(F)F)c(=O)n1 (stereo unspecified) + Cc1cnc(CNC(=O)c2c(=O)c3ccc(N4CCCN(C)CC4)nc3n3c2sc2ccccc23)cn1 has a pIC50 (second compound 0.0316 µM) of 6.80, a pIC50 (second compound 0.1 µM) of 6.84 and a pIC50 (second compound 0.316 µM) of 6.92. For the same compound, the pIC50 (second compound 1 µM) was 7.31, the pIC50 (second compound 3.16 µM) was over 7.50 and the pIC50 (second compound 10 µM) was over 7.50. The viability, T/C [1] was 98.5%, the viability, T/C [2] was 65.9% and the viability, T/C [3] was 25.2%. The viability, T/C [4] was 24%, the viability, T/C [5] was 22.9% and the viability, T/C [6] was 16.7%. For the same compound, the viability, T/C [7] was 104%, the viability, T/C [8] was 61.7% and the viability, T/C [9] was 24.5%. The viability, T/C [10] was 24.9%, the viability, T/C [11] was 25.1% and the viability, T/C [12] was 16.3%. For the same compound, the viability, T/C [13] was 81.6%, the viability, T/C [14] was 53.6% and the viability, T/C [15] was 32%. The viability, T/C [16] was 22.1%, the viability, T/C [17] was 22.7% and the viability, T/C [18] was 16.2%. For the same compound, the viability, T/C [19] was 53.9%, the viability, T/C [20] was 44.1% and the viability, T/C [21] was 25.6%. It also gave a viability, T/C [22] of 22.4%, a viability, T/C [23] of 20.4% and a viability, T/C [24] of 15.7%. For the same compound, the viability, T/C [25] was 49.1%, the viability, T/C [26] was 37.5% and the viability, T/C [27] was 23.2%. The viability, T/C [28] was 21%, the viability, T/C [29] was 22.4% and the viability, T/C [30] was 15.9%. For the same compound, the viability, T/C [31] was 39.2%, the viability, T/C [32] was 33.5% and the viability, T/C [33] was 22.1%. The viability, T/C [34] was 20.3%, the viability, T/C [35] was 20% and the viability, T/C [36] was 10.8%.

O=c1[nH]cc(F)c(=O)[nH]1 + Cc1cnc(CNC(=O)c2c(=O)c3ccc(N4CCCN(C)CC4)nc3n3c2sc2ccccc23)cn1 gave a pIC50 (second compound 0.0316 µM) of under 5.00, a pIC50 (second compound 0.1 µM) of under 5.00 and a pIC50 (second compound 0.316 µM) of under 5.00. It also gave a pIC50 (second compound 1 µM) of under 5.00, a pIC50 (second compound 3.16 µM) of under 5.00 and a pIC50 (second compound 10 µM) of over 7.50. The viability, T/C [1] was 98.6%, the viability, T/C [2] was 92.1% and the viability, T/C [3] was 114%. The viability, T/C [4] was 82.9%, the viability, T/C [5] was 77% and the viability, T/C [6] was 65.4%. It also gave a viability, T/C [7] of 94.6%, a viability, T/C [8] of 97.7% and a viability, T/C [9] of 107%. The viability, T/C [10] was 76.2%, the viability, T/C [11] was 76.1% and the viability, T/C [12] was 65%. For the same compound, the viability, T/C [13] was 78.3%, the viability, T/C [14] was 82.6% and the viability, T/C [15] was 81.4%. It also gave a viability, T/C [16] of 76.3%, a viability, T/C [17] of 68.5% and a viability, T/C [18] of 62.8%. It also gave a viability, T/C [19] of 51.3%, a viability, T/C [20] of 51.8% and a viability, T/C [21] of 62.5%. The viability, T/C [22] was 56.8%, the viability, T/C [23] was 55.6% and the viability, T/C [24] was 48.3%. The viability, T/C [25] was 54.8%, the viability, T/C [26] was 50.1% and the viability, T/C [27] was 49%. The viability, T/C [28] was 44.2%, the viability, T/C [29] was 63.6% and the viability, T/C [30] was 53.9%. The viability, T/C [31] was 46.4%, the viability, T/C [32] was 45.7% and the viability, T/C [33] was 54.5%. The viability, T/C [34] was 52.5%, the viability, T/C [35] was 54.5% and the viability, T/C [36] was 34.9%.
